We go through two compounds from US12465648B2, “Heterobifunctional compounds as degraders of HPK1” (ICAHN SCHOOL OF MEDICINE AT MOUNT SINAI, priority 2019, dated 2025).

In assay [1] the target is T1, HPK1 (Homo sapiens, UniProt Q92918).
T1 construct: endogenous in cells; host or cells: Jurkat T cells
Briefly: Western blot analysis of endogenous HPK1 level in Jurkat T cells. In kind it is cell-based. The settings on record: characterization of exemplary degraders (FIGS. 1-14).

Assay [2] has as its target T2, HPK1 (Mus musculus, UniProt P70218).
T2 construct: HPK1 degraders could effectively degrade endogenous HPK1 in murine T cells; endogenous in cells; host or cells: primary mouse T cells
T2 sequence (P70218 1-827): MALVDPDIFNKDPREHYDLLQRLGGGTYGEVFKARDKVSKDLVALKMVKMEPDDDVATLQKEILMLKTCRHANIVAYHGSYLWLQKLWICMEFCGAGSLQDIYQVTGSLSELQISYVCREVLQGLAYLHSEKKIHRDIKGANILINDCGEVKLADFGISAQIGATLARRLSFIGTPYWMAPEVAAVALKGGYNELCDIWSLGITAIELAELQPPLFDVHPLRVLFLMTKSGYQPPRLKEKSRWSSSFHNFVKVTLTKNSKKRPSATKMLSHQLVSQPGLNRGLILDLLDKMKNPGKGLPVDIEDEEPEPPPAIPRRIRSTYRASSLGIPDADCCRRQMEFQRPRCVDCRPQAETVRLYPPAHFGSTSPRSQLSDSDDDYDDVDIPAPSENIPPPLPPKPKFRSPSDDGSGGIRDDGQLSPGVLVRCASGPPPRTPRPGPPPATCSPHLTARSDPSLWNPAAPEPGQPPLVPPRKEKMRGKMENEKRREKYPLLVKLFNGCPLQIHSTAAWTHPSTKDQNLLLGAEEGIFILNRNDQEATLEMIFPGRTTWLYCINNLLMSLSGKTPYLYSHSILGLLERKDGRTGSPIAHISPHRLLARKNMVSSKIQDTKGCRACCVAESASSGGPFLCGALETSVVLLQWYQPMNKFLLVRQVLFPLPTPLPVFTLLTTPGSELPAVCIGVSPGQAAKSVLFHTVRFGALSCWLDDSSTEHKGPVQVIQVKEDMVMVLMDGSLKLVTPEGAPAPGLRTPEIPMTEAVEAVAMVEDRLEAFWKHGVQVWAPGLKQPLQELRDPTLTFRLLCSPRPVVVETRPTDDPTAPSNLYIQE
In words: HPK1 degradation in primary mouse T cells. Conditions: 300 nM. The class given is cell-based. Here is the method: EXAMPLE 348. Several compounds according to the present invention employing the indolin-2-one HPK1 binding base, (which henceforth shall be referred to as the HC58 series, the HC65 series and the HC75 series) were assessed on their abilities to degrade HPK1 and produce an elevated IL-2 response profile upon stimulation by anti-CD3- and anti-CD28-mAb-mediated (CD3XCD28) stimulation (FIGS. 1-4). The elevated IL-2 response profile induced by TCR engagement after exposure to HC58 series of HPK1 degraders is shown in FIG. 1. […] A select sub-set of the lead HPK1 degraders from the HC58 series were further characterized to determine whether they could degrade primary mouse T cells.
EXAMPLE 353. HPK1 is expressed in all hematopoietic cells examined to date, including T cells, B cells, dendritic cells and neutrophils. Because the breath of therapeutic approaches might involve the use of Chimeric Antigen Receptor (CAR) T cells, dendritic cells, TCR transgenic T cells and Tumor Infiltrating Lymphocytes (TILs), selected HPK1 degraders were evaluated to determine whether they could degrade HPK1 effectively in some of these cell types. […] Potent degradation of HPK1 by HPK1 degraders was also observed in the human DC1 dendritic cells.

The structures appear in SMILES notation.

T1 sequence (Q92918 whole entry): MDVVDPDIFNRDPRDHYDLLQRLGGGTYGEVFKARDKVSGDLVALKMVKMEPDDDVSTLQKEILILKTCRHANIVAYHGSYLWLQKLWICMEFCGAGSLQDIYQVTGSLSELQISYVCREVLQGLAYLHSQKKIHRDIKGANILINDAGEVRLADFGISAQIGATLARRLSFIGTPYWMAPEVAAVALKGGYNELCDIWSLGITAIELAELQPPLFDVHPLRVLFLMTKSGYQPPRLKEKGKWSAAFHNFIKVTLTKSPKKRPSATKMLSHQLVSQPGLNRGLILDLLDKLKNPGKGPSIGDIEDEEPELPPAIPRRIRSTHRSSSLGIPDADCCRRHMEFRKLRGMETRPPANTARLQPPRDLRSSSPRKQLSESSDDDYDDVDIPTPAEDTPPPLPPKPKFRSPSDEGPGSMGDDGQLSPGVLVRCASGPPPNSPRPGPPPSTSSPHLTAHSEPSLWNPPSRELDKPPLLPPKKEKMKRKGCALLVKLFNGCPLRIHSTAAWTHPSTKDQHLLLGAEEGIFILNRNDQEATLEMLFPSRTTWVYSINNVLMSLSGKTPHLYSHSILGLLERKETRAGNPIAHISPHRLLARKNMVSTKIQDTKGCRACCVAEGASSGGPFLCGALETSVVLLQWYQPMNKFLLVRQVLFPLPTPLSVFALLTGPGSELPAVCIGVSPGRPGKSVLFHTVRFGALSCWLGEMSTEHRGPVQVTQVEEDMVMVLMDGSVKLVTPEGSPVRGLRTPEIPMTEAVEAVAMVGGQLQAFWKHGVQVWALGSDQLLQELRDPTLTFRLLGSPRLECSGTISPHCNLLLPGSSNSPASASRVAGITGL

Take `Cc1[nH]c(/C=C2\C(=O)Nc3ccc(F)cc32)c(C)c1C(=O)NCCCN1CCN(CC(=O)NCCCCCCNc2cccc3c2C(=O)N(C2CCC(=O)NC2=O)C3=O)CC1` (stereo not drawn) [HC58-76, (Z)—N-(3-(4-(2-((6-((2-(2,6-dioxopiperidin-3-yl)-1,3-dioxoisoindolin-4-yl)amino)hexyl)amino)-2-oxoethyl)piperazin-1-yl)propyl)-5-((5-fluoro-2-oxoindolin-3-ylidene)methyl)-2,4-dimethyl-1H-pyrrole-3-carboxamide]: the “reducing HPK1 protein levels” value at HPK1 [1] was “especially effective in reducing HPK1 protein levels”. In addition, the “degradation of HPK1 protein in primary T cells compared with Jurkat T cells” value at HPK1 [2] is “could degrade more HPK1 protein in primary T cells than in Jurkat T cells”.

With `Cc1[nH]c(/C=C2\C(=O)Nc3ccc(F)cc32)c(C)c1C(=O)NCCCN1CCN(C(=O)CCCCNc2cccc3c2C(=O)N(C2CCC(=O)NC2=O)C3=O)CC1` (stereo not drawn) [HC58-38, (Z)—N-(3-(4-(5-((2-(2,6-dioxopiperidin-3-yl)-1,3-dioxoisoindolin-4-yl)amino)pentanoyl)piperazin-1-yl)propyl)-5-((5-fluoro-2-oxoindolin-3-ylidene)methyl)-2,4-dimethyl-1H-pyrrole-3-carboxamide], on HPK1 [1], the “reducing HPK1 protein levels” value is recorded as “especially effective in reducing HPK1 protein levels”.
